The numbers were not newly measured in patent US8080647B2 (priority 2006, dated 2011), which cites them from elsewhere.

The target in data set [1] is lac repressor (Escherichia coli, UniProt P03023).
Data set [2] has as its system cells.
The test system of data set [3] is lac operator-repressor system. Particulars: Ulmasov et al. 1997.

As to `CC(C)S[C@@H]1O[C@H](CO)[C@H](O)[C@H](O)[C@H]1O` [IPTG, isopropyl-B-D-thiogalactopyranoside], in data set [1], the “reduction of the affinity of lac repressor for the operator” value is recorded as 300 fold. In addition, in data set [2], the “toxicity of the inducing agent” value is reported as “cytotoxic”.

B1: lactose repressor: repressor protein of the E. coli lactose operon (protein, UniProt P03023 1-360, looked up)
Lactose operon repressor: MKPVTLYDVAEYAGVSYQTVSRVVNQASHVSAKTREKVEAAMAELNYIPNRVAQQLAGKQSLLIGVATSSLALHAPSQIVAAIKSRADQLGASVVVSMVERSGVEACKAAVHNLLAQRVSGLIINYPLDDQDAIAVEAACTNVPALFLDVSDQTPINSIIFSHEDGTRLGVEHLVALGHQQIALLAGPLSSVSARLRLAGWHKYLTRNQIQPIAEREGDWSAMSGFQQTMQMLNEGIVPTAMLVANDQMALGAMRAITESGLRVGADISVVGYDDTEDSSCYIPPLTTIKQDFRLLGQTSVDRLLQLSQGQAVKGNQLLPVSLVKRKTTLAPNTQTASPRALADSLMQLARQVSRLESGQ
As for B1, in data set [3], the repression reported was 30 fold.
